Results published in patent US7161032B2, “Sulfonamide derivatives, insecticides for agricultural and horticultural use, and usage thereof” (Nihon Nohyaku Co., Ltd., priority 2002, dated 2007).

Tests used:
Assay type in all cases: in vivo
[1] = system: Diamond Back Moth (Plutella xylostella); assay: Insecticidal effect on diamond back moth (Test Example 1): egg-bearing Chinese cabbage seedling immersed in 50 ppm liquid chemical
Method: Adult diamond back moths were released and allowed to oviposit on a Chinese cabbage seedling. Two days after the release, the seedling having the eggs deposited thereon was immersed for about 30 seconds in a liquid chemical prepared by diluting a preparation containing each compound listed in Table 1 or 2 as an active ingredient to adjust the concentration to 50 ppm. After air-dryness, it was allowed to stand in a room thermostated at 25° C. Six days after the immersion, the hatched insects were counted. The mortality was calculated according to the following equation and the insecticidal effect was judged according to the criterion shown below. The test was carried out with triplicate groups of 10 insects. [formula]

[2] = system: Common Cutworm (Spodoptera litura); assay: Insecticidal effect on common cutworm (Test Example 2): cabbage leaf piece immersed in 50 ppm liquid chemical; conditions: common cutworm (Spodoptera litura) second-instar larvae, 8 days after inoculation, 25° C.
Method: A piece of cabbage leaf (cultivar: Shikidori) was immersed for about 30 seconds in a liquid chemical prepared by diluting a preparation containing each compound listed in Table 1 or 2 as an active ingredient to adjust the concentration to 50 ppm. After air-dryness, it was placed in a plastic Petri dish with a diameter of 9 cm and inoculated with second-instar larvae of common cutworm, after which the dish was closed and then allowed to stand in a room thermostated at 25° C. Eight days after the inoculation, the dead and alive were counted. The mortality was calculated according to the following equation and the insecticidal effect was judged according to the criterion shown in Test Example 1. The test was carried out with triplicate groups of 10 insects. [formula]

[3] = system: Smaller Tea Tortrix (Adoxophyes sp.); assay: Insecticidal effect on smaller tea tortrix (Test Example 3): tea leaves immersed in 50 ppm liquid chemical; conditions: smaller tea tortrix (Adoxophyes sp.) larvae, 8 days after inoculation, 25° C., humidity 70%
Method: Tea leaves were immersed for about 30 seconds in a liquid chemical prepared by diluting a preparation containing each compound listed in Table 1 or 2 as an active ingredient to adjust the concentration to 50 ppm. After air-dryness, the tea leaves were placed in a plastic Petri dish with a diameter of 9 cm and inoculated with larvae of smaller tea tortrix, after which the dish was allowed to stand in a room thermostated at 25° C. and having a humidity of 70%. Eight days after the inoculation, the dead and alive were counted and the insecticidal effect was judged according to the criterion shown in Test Example 1. The test was carried out with triplicate groups of 10 insects.

SMILES: Cc1cc(C(F)(C(F)(F)F)C(F)(F)F)ccc1NC(=O)c1cccc(I)c1C(=O)NC(C)CS(=O)(=O)NC(C)c1ccccc1 (stereo not shown) [1-44]
- Insecticidal effect (mortality grade), Test Example 1 [1]: A (Mortality 100%)
- Insecticidal effect (mortality grade), Test Example 2 [2]: A (Mortality 100%)
- Insecticidal effect (mortality grade), Test Example 3 [3]: A (Mortality 100%)

SMILES: Cc1cc(C(F)(C(F)(F)F)C(F)(F)F)ccc1NC(=O)c1cccc(I)c1C(=O)NC(C)(C)CS(=O)(=O)N1CCSCC1C (stereo not shown) [1-61]
- Insecticidal effect (mortality grade), Test Example 1 [1]: A (Mortality 100%)
- Insecticidal effect (mortality grade), Test Example 2 [2]: A (Mortality 100%)
- Insecticidal effect (mortality grade), Test Example 3 [3]: A (Mortality 100%)

SMILES: CSC[C@H](C)NS(=O)(=O)C[C@H](C)NC(=O)c1c(I)cccc1C(=O)Nc1ccc(C(F)(C(F)(F)F)C(F)(F)F)cc1C [1-147]
- Insecticidal effect (mortality grade), Test Example 1 [1]: A (Mortality 100%)
- Insecticidal effect (mortality grade), Test Example 2 [2]: A (Mortality 100%)
- Insecticidal effect (mortality grade), Test Example 3 [3]: A (Mortality 100%)

SMILES: COc1cccc(OC)c1CNS(=O)(=O)CC(C)NC(=O)c1c(I)cccc1C(=O)Nc1ccc(C(F)(C(F)(F)F)C(F)(F)F)cc1C (stereo not shown) [1-32]
- Insecticidal effect (mortality grade), Test Example 1 [1]: A (Mortality 100%)
- Insecticidal effect (mortality grade), Test Example 2 [2]: A (Mortality 100%)
- Insecticidal effect (mortality grade), Test Example 3 [3]: A (Mortality 100%)

SMILES: CCNS(=O)(=O)CC(C)NC(=O)c1c(I)cccc1C(=O)Nc1ccc(C(F)(C(F)(F)F)C(F)(F)F)cc1C (stereo not shown) [1-4, N^2-(2-ethylsulfamoyl-1-methylethyl)-3-iodo-N^1-{2-methyl-4-[1,2,2,2-tetrafluoro-1-(trifluoromethyl)ethyl]phenyl}phthalamide]
- Insecticidal effect (mortality grade), Test Example 1 [1]: A (Mortality 100%)
- Insecticidal effect (mortality grade), Test Example 2 [2]: A (Mortality 100%)
- Insecticidal effect (mortality grade), Test Example 3 [3]: A (Mortality 100%)

SMILES: CCS(=O)(=O)CCNS(=O)(=O)CC(C)(C)NC(=O)c1c(I)cccc1C(=O)Nc1ccc(C(F)(F)C(F)(F)F)cc1C [1-309]
- Insecticidal effect (mortality grade), Test Example 1 [1]: A (Mortality 100%)
- Insecticidal effect (mortality grade), Test Example 2 [2]: A (Mortality 100%)
- Insecticidal effect (mortality grade), Test Example 3 [3]: A (Mortality 100%)

SMILES: CCN(CC)S(=O)(=O)CC(C)(C)NC(=O)c1c(Br)cccc1C(=O)Nc1ccc(C(F)(C(F)(F)F)C(F)(F)F)cc1C [1-219]
- Insecticidal effect (mortality grade), Test Example 1 [1]: A (Mortality 100%)
- Insecticidal effect (mortality grade), Test Example 2 [2]: A (Mortality 100%)
- Insecticidal effect (mortality grade), Test Example 3 [3]: A (Mortality 100%)

SMILES: CSCCNS(=O)(=O)CC(C)(C)NC(=O)c1c(I)cccc1C(=O)Nc1ccc(C(F)(F)C(F)(F)F)cc1C [1-304]
- Insecticidal effect (mortality grade), Test Example 1 [1]: A (Mortality 100%)
- Insecticidal effect (mortality grade), Test Example 2 [2]: A (Mortality 100%)
- Insecticidal effect (mortality grade), Test Example 3 [3]: A (Mortality 100%)

SMILES: CC[S+]([O-])CCNS(=O)(=O)CC(C)(C)NC(=O)c1c(I)cccc1C(=O)Nc1ccc(C(F)(C(F)(F)F)C(F)(F)F)cc1C (stereo not shown) [1-85]
- Insecticidal effect (mortality grade), Test Example 1 [1]: A (Mortality 100%)
- Insecticidal effect (mortality grade), Test Example 2 [2]: A (Mortality 100%)
- Insecticidal effect (mortality grade), Test Example 3 [3]: A (Mortality 100%)

SMILES: Cc1cc(C(F)(C(F)(F)F)C(F)(F)F)ccc1NC(=O)c1cccc(I)c1C(=O)NC(C)(C)CS(=O)(=O)N1CCSCC1 [1-58]
- Insecticidal effect (mortality grade), Test Example 1 [1]: A (Mortality 100%)
- Insecticidal effect (mortality grade), Test Example 2 [2]: A (Mortality 100%)
- Insecticidal effect (mortality grade), Test Example 3 [3]: E (Mortality less than 50%)

SMILES: Cc1cc(C(F)(C(F)(F)F)C(F)(F)F)ccc1NC(=O)c1cccc(I)c1C(=O)NC(C)CS(=O)(=O)Nc1ccccc1F (stereo not shown) [1-107]
- Insecticidal effect (mortality grade), Test Example 1 [1]: A (Mortality 100%)
- Insecticidal effect (mortality grade), Test Example 2 [2]: C (Mortality 89–80%)
- Insecticidal effect (mortality grade), Test Example 3 [3]: A (Mortality 100%)

SMILES: Cc1cc(C(F)(C(F)(F)F)C(F)(F)F)ccc1NC(=O)c1cccc(I)c1C(=O)NC(C)CS(=O)(=O)NCc1ccncc1 (stereo not shown) [1-41]
- Insecticidal effect (mortality grade), Test Example 1 [1]: A (Mortality 100%)
- Insecticidal effect (mortality grade), Test Example 2 [2]: A (Mortality 100%)
- Insecticidal effect (mortality grade), Test Example 3 [3]: A (Mortality 100%)

SMILES: CCN(Cc1ccccc1)S(=O)(=O)CC(C)NC(=O)c1c(I)cccc1C(=O)Nc1ccc(C(F)(C(F)(F)F)C(F)(F)F)cc1C (stereo not shown) [1-43]
- Insecticidal effect (mortality grade), Test Example 1 [1]: A (Mortality 100%)
- Insecticidal effect (mortality grade), Test Example 2 [2]: A (Mortality 100%)
- Insecticidal effect (mortality grade), Test Example 3 [3]: A (Mortality 100%)

SMILES: CSc1ccc(NS(=O)(=O)CC(C)NC(=O)c2c(I)cccc2C(=O)Nc2ccc(C(F)(C(F)(F)F)C(F)(F)F)cc2C)cc1 (stereo not shown) [1-112]
- Insecticidal effect (mortality grade), Test Example 1 [1]: A (Mortality 100%)
- Insecticidal effect (mortality grade), Test Example 2 [2]: E (Mortality less than 50%)
- Insecticidal effect (mortality grade), Test Example 3 [3]: E (Mortality less than 50%)

SMILES: Cc1cc(C(F)(C(F)(F)F)C(F)(F)F)ccc1NC(=O)c1cccc(I)c1C(=O)NC(C)CS(=O)(=O)NC(C)CS(C)(=O)=O (stereo not shown) [1-93]
- Insecticidal effect (mortality grade), Test Example 1 [1]: A (Mortality 100%)
- Insecticidal effect (mortality grade), Test Example 2 [2]: A (Mortality 100%)
- Insecticidal effect (mortality grade), Test Example 3 [3]: A (Mortality 100%)

SMILES: Cc1cc(C(F)(F)C(F)(F)F)ccc1NC(=O)c1cccc(I)c1C(=O)NC(C)(C)CS(=O)(=O)NCc1ccccc1 [1-303]
- Insecticidal effect (mortality grade), Test Example 1 [1]: A (Mortality 100%)
- Insecticidal effect (mortality grade), Test Example 2 [2]: A (Mortality 100%)
- Insecticidal effect (mortality grade), Test Example 3 [3]: A (Mortality 100%)

SMILES: Cc1cc(C(F)(C(F)(F)F)C(F)(F)F)ccc1NC(=O)c1cccc(I)c1C(=O)NC(C)CS(N)(=O)=O (stereo not shown) [1-1]
- Insecticidal effect (mortality grade), Test Example 1 [1]: A (Mortality 100%)
- Insecticidal effect (mortality grade), Test Example 2 [2]: A (Mortality 100%)
- Insecticidal effect (mortality grade), Test Example 3 [3]: A (Mortality 100%)

SMILES: Cc1cc(C(F)(C(F)(F)F)C(F)(F)F)ccc1NC(=O)c1cccc(I)c1C(=O)NC(C)(C)CS(=O)(=O)N1CC[S+]([O-])CC1 [1-59]
- Insecticidal effect (mortality grade), Test Example 1 [1]: A (Mortality 100%)
- Insecticidal effect (mortality grade), Test Example 2 [2]: A (Mortality 100%)
- Insecticidal effect (mortality grade), Test Example 3 [3]: E (Mortality less than 50%)

SMILES: COc1ccc(CNS(=O)(=O)CC(C)NC(=O)c2c(I)cccc2C(=O)Nc2ccc(C(F)(C(F)(F)F)C(F)(F)F)cc2C)cc1 (stereo not shown) [1-35]
- Insecticidal effect (mortality grade), Test Example 1 [1]: A (Mortality 100%)
- Insecticidal effect (mortality grade), Test Example 2 [2]: A (Mortality 100%)
- Insecticidal effect (mortality grade), Test Example 3 [3]: A (Mortality 100%)

SMILES: CCN(CC)S(=O)(=O)CC(C)(C)NC(=O)c1c(I)cccc1C(=O)Nc1ccc(C(C(F)(F)F)C(F)(F)F)cc1C [1-344]
- Insecticidal effect (mortality grade), Test Example 1 [1]: A (Mortality 100%)
- Insecticidal effect (mortality grade), Test Example 2 [2]: A (Mortality 100%)
- Insecticidal effect (mortality grade), Test Example 3 [3]: A (Mortality 100%)

SMILES: Cc1cc(C(F)(C(F)(F)F)C(F)(F)F)ccc1NC(=O)c1cccc(I)c1C(=O)NC(C)CS(=O)(=O)NCc1cccc([N+](=O)[O-])c1 (stereo not shown) [1-30]
- Insecticidal effect (mortality grade), Test Example 1 [1]: A (Mortality 100%)
- Insecticidal effect (mortality grade), Test Example 2 [2]: A (Mortality 100%)
- Insecticidal effect (mortality grade), Test Example 3 [3]: A (Mortality 100%)

SMILES: CCNC(=O)C(C)NS(=O)(=O)CC(C)NC(=O)c1c(I)cccc1C(=O)Nc1ccc(C(F)(C(F)(F)F)C(F)(F)F)cc1C (stereo not shown) [1-104]
- Insecticidal effect (mortality grade), Test Example 1 [1]: A (Mortality 100%)
- Insecticidal effect (mortality grade), Test Example 2 [2]: A (Mortality 100%)
- Insecticidal effect (mortality grade), Test Example 3 [3]: A (Mortality 100%)

SMILES: CCCCNS(=O)(=O)CC(C)NC(=O)c1c(I)cccc1C(=O)Nc1ccc(C(F)(C(F)(F)F)C(F)(F)F)cc1C (stereo not shown) [1-12]
- Insecticidal effect (mortality grade), Test Example 1 [1]: A (Mortality 100%)
- Insecticidal effect (mortality grade), Test Example 2 [2]: A (Mortality 100%)
- Insecticidal effect (mortality grade), Test Example 3 [3]: A (Mortality 100%)

SMILES: Cc1cc(C(F)(C(F)(F)F)C(F)(F)F)ccc1NC(=O)c1cccc(I)c1C(=O)NC(C)(C)CS(=O)(=O)NCCS(C)(=O)=O [1-83]
- Insecticidal effect (mortality grade), Test Example 1 [1]: A (Mortality 100%)
- Insecticidal effect (mortality grade), Test Example 2 [2]: A (Mortality 100%)
- Insecticidal effect (mortality grade), Test Example 3 [3]: A (Mortality 100%)

SMILES: Cc1cc(C(F)(F)C(F)(F)F)ccc1NC(=O)c1cccc(I)c1C(=O)NC(C)(C)CS(=O)(=O)NCCSc1ccccc1 [1-310]
- Insecticidal effect (mortality grade), Test Example 1 [1]: A (Mortality 100%)
- Insecticidal effect (mortality grade), Test Example 2 [2]: A (Mortality 100%)
- Insecticidal effect (mortality grade), Test Example 3 [3]: A (Mortality 100%)

SMILES: Cc1cc(C(F)(C(F)(F)F)C(F)(F)F)ccc1NC(=O)c1cccc(I)c1C(=O)N[C@@H](C)CS(=O)(=O)N[C@@H](C)CS(C)(=O)=O [1-149]
- Insecticidal effect (mortality grade), Test Example 1 [1]: A (Mortality 100%)
- Insecticidal effect (mortality grade), Test Example 2 [2]: A (Mortality 100%)
- Insecticidal effect (mortality grade), Test Example 3 [3]: A (Mortality 100%)

SMILES: CCNS(=O)(=O)CC(C)NC(=O)c1c(I)cccc1C(=O)Nc1ccc(C(F)(C(F)(F)F)C(F)(F)F)cc1C (stereo not shown) [1-142]
- Insecticidal effect (mortality grade), Test Example 3 [3]: A (Mortality 100%)
